Measured values: US7732475B2, “Histone deacetylase inhibitors” (Takeda San Diego, Inc., priority 2005, dated 2010)

Target: HDAC2 (Homo sapiens, UniProt Q92769)
Assay: HDAC2 fluorescence inhibition assay (tBoc-Lys(Ac)-AMC)

Chain of HDAC2 (Q92769 with tags, fused parts or gaps): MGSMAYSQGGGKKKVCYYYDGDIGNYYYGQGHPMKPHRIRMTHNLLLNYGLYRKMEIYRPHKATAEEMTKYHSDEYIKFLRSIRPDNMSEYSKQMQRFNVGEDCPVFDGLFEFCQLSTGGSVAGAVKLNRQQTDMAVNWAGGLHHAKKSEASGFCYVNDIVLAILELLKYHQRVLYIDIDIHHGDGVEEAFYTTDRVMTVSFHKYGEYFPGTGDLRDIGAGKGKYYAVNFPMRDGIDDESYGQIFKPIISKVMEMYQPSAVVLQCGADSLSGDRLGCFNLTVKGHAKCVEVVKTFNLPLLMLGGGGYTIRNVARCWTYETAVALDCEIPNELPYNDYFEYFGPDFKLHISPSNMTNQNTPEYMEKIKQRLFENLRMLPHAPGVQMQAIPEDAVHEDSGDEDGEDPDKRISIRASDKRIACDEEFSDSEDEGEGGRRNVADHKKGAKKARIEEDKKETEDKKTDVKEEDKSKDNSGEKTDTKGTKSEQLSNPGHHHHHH

Row | Structure (SMILES) | IC50
1 | Cc1nn(Cc2ccc(C(=O)Nc3ccccc3N)cc2)c2cccc(F)c12 [Example 54, N-(2-aminophenyl)-4-((4-fluoro-3-methyl-1H-indazol-1-yl)methyl)benzamide] | 100 to 500 nM
2 | Nc1ccccc1NC(=O)c1ccc(Cn2[nH]c3ccccc3c2=O)cc1 [Example 65, N-(2-aminophenyl)-4-((3-oxo-1H-indazol-2(3H)-yl)methyl)benzamide] | 100 to 500 nM
3 | Cc1nn(Cc2ccc(C(=O)Nc3ccccc3N)cc2)c2cc(F)ccc12 [Example 68, N-(2-aminophenyl)-4-((6-fluoro-3-methyl-1H-indazol-1-yl)methyl)benzamide] | 50 to 100 nM
4 | Cc1c2ccc(F)cc2nn1Cc1ccc(C(=O)Nc2ccccc2N)cc1 [Example 69, N-(2-aminophenyl)-4-((6-fluoro-3-methyl-2H-indazol-2-yl)methyl)benzamide] | 50 to 100 nM
5 | Cc1nn(Cc2ccc(C(=O)Nc3ccccc3N)cc2)c2ccc(F)cc12 [Example 70, N-(2-aminophenyl)-4-((5-fluoro-3-methyl-1H-indazol-1-yl)methyl)benzamide] | 100 to 500 nM
6 | Cc1c2cc(F)ccc2nn1Cc1ccc(C(=O)Nc2ccccc2N)cc1 [Example 71, N-(2-aminophenyl)-4-((5-fluoro-3-methyl-2H-indazol-2-yl)methyl)benzamide] | 50 to 100 nM
7 | CCc1nn(Cc2ccc(C(=O)Nc3ccccc3N)cc2)c2ccccc12 [Example 72, N-(2-aminophenyl)-4-((3-ethyl-1H-indazol-1-yl)methyl)benzamide] | 50 to 100 nM
8 | CCc1c2ccccc2nn1Cc1ccc(C(=O)Nc2ccccc2N)cc1 [Example 73, N-(2-aminophenyl)-4-((3-ethyl-2H-indazol-2-yl)methyl)benzamide] | 100 to 500 nM
9 | Cc1c2ccc(O)cc2nn1Cc1ccc(C(=O)Nc2ccccc2N)cc1 [Example 75, N-(2-aminophenyl)-4-((6-hydroxy-3-methyl-2H-indazol-2-yl)methyl)benzamide] | 100 to 500 nM
10 | Nc1ccccc1NC(=O)c1ccc(Cn2nc(-c3ccccc3)c3ccccc32)cc1 [Example 76, N-(2-aminophenyl)-4-((3-phenyl-1H-indazol-1-yl)methyl)benzamide] | 50 to 100 nM
11 | Nc1ccccc1NC(=O)c1ccc(Cn2nc3ccccc3c2-c2ccccc2)cc1 [Example 77, N-(2-aminophenyl)-4-((3-phenyl-2H-indazol-2-yl)methyl)benzamide] | 50 to 100 nM
12 | Cc1ccc2c(c1)c(C)nn2Cc1ccc(C(=O)Nc2ccccc2N)cc1 [Example 80, N-(2-aminophenyl)-4-((3,5-dimethyl-1H-indazol-1-yl)methyl)benzamide] | 50 to 100 nM
13 | Cc1ccc2nn(Cc3ccc(C(=O)Nc4ccccc4N)cc3)c(C)c2c1 [Example 81, N-(2-aminophenyl)-4-((3,5-dimethyl-2H-indazol-2-yl)methyl)benzamide] | 50 to 100 nM
14 | COc1cccc2cn(Cc3ccc(C(=O)Nc4ccccc4N)cc3)nc12 [Example 82, N-(2-aminophenyl)-4-((7-methoxy-2H-indazol-2-yl)methyl)benzamide] | 50 to 100 nM
15 | COc1cccc2cnn(Cc3ccc(C(=O)Nc4ccccc4N)cc3)c12 [Example 84, N-(2-aminophenyl)-4-((7-methoxy-1H-indazol-1-yl)methyl)benzamide] | 100 to 500 nM
16 | CC(=O)Nc1ccc2c(C)nn(Cc3ccc(C(=O)Nc4ccccc4N)cc3)c2c1 [Example 87, 4-((6-acetamido-3-methyl-1H-indazol-1-yl)methyl)-N-(2-aminophenyl)benzamide] | 50 to 100 nM
17 | Nc1ccccc1NC(=O)c1ccc(Cn2nc3ccccc3c2N)cc1 [Example 88, 4-((3-amino-2H-indazol-2-yl)methyl)-N-(2-aminophenyl)benzamide] | 50 to 100 nM
18 | Cc1c2cccc(C(F)(F)F)c2nn1Cc1ccc(C(=O)Nc2ccccc2N)cc1 [Example 91, N-(2-aminophenyl)-4-((3-methyl-7-(trifluoromethyl)-2H-indazol-2-yl)methyl)benzamide] | 50 to 100 nM
19 | Cc1c2ccc(C(F)(F)F)cc2nn1Cc1ccc(C(=O)Nc2ccccc2N)cc1 [Example 92, N-(2-aminophenyl)-4-((3-methyl-6-(trifluoromethyl)-2H-indazol-2-yl)methyl)benzamide] | 50 to 100 nM
20 | Cc1nn(Cc2ccc(C(=O)Nc3ccccc3N)cc2)c2cc(C(F)(F)F)ccc12 [Example 93, N-(2-aminophenyl)-4-((3-methyl-6-(trifluoromethyl)-1H-indazol-1-yl)methyl)benzamide] | 50 to 100 nM
21 | Cc1nn(Cc2ccc(C(=O)Nc3ccccc3N)cc2)c2ccc(C(F)(F)F)cc12 [Example 94, N-(2-aminophenyl)-4-((3-methyl-5-(trifluoromethyl)-1H-indazol-1-yl)methyl)benzamide] | 50 to 100 nM

Further lines, results first:

Row | IC50 | Structure (SMILES)
22 | ≤ 50 nM | Nc1ccccc1NC(=O)c1ccc(Cn2cc3c(F)cccc3n2)cc1 [Example 49, N-(2-aminophenyl)-4-((4-fluoro-2H-indazol-2-yl)methyl)benzamide]
23 | 50 to 100 nM | C[C@H](c1ccc(C(=O)Nc2ccccc2N)cc1)n1cc2ccccc2n1 [Example 50, (R)-4-(1-(2H-indazol-2-yl)ethyl)-N-(2-aminophenyl)benzamide]
24 | 50 to 100 nM | C[C@@H](c1ccc(C(=O)Nc2ccccc2N)cc1)n1cc2ccccc2n1 [Example 51, (S)-4-(1-(2H-indazol-2-yl)ethyl)-N-(2-aminophenyl)benzamide]
25 | 50 to 100 nM | Cc1nn(Cc2ccc(C(=O)Nc3ccccc3N)cc2)c2c(F)cccc12 [Example 52, N-(2-aminophenyl)-4-((7-fluoro-3-methyl-1H-indazol-1-yl)methyl)benzamide]
26 | 50 to 100 nM | Cc1c2cccc(F)c2nn1Cc1ccc(C(=O)Nc2ccccc2N)cc1 [Example 53, N-(2-aminophenyl)-4-((7-fluoro-3-methyl-2H-indazol-2-yl)methyl)benzamide]
27 | 50 to 100 nM | Cc1c2c(F)cccc2nn1Cc1ccc(C(=O)Nc2ccccc2N)cc1 [Example 55, N-(2-aminophenyl)-4-((4-fluoro-3-methyl-2H-indazol-2-yl)methyl)benzamide]
28 | 50 to 100 nM | Cc1nn(Cc2ccc(C(=O)Nc3ccccc3N)cc2)c2cc(F)c(F)cc12 [Example 56, N-(2-aminophenyl)-4-((5,6-difluoro-3-methyl-1H-indazol-1-yl)methyl)benzamide]
29 | 50 to 100 nM | Cc1c2cc(F)c(F)cc2nn1Cc1ccc(C(=O)Nc2ccccc2N)cc1 [Example 57, N-(2-aminophenyl)-4-((5,6-difluoro-3-methyl-2H-indazol-2-yl)methyl)benzamide]
30 | 50 to 100 nM | COc1ccc2cnn(Cc3ccc(C(=O)Nc4ccccc4N)cc3)c2c1 [Example 58, N-(2-aminophenyl)-4-((6-methoxy-1H-indazol-1-yl)methyl)benzamide]
31 | ≤ 50 nM | COc1ccc2cn(Cc3ccc(C(=O)Nc4ccccc4N)cc3)nc2c1 [Example 59, N-(2-aminophenyl)-4-((6-methoxy-2H-indazol-2-yl)methyl)benzamide]
32 | 50 to 100 nM | Nc1ccccc1NC(=O)c1ccc(Cn2nc(Cl)c3ccccc32)cc1 [Example 60, N-(2-aminophenyl)-4-((3-chloro-1H-indazol-1-yl)methyl)benzamide]
33 | ≤ 50 nM | Nc1ccccc1NC(=O)c1ccc(Cn2nc3ccccc3c2Cl)cc1 [Example 61, N-(2-aminophenyl)-4-((3-chloro-2H-indazol-2-yl)methyl)benzamide]
34 | ≤ 50 nM | Nc1ccccc1NC(=O)c1ccc(Cn2nc3ccc(C(F)(F)F)cc3c2N)cc1 [Example 62, 4-((3-amino-5-(trifluoromethyl)-2H-indazol-2-yl)methyl)-N-(2-aminophenyl)benzamide]
35 | 50 to 100 nM | Nc1ccccc1NC(=O)c1ccc(Cn2nc(N)c3cc(C(F)(F)F)ccc32)cc1 [Example 63, 4-((3-amino-5-(trifluoromethyl)-1H-indazol-1-yl)methyl)-N-(2-aminophenyl)benzamide]
36 | 50 to 100 nM | Nc1ccccc1NC(=O)c1ccc(Cn2[nH]c(=O)c3ccccc32)cc1 [Example 64, N-(2-aminophenyl)-4-((3-oxo-2,3-dihydro-1H-indazol-1-yl)methyl)benzamide]
37 | ≤ 50 nM | COc1ccc2c(C)nn(Cc3ccc(C(=O)Nc4ccccc4N)cc3)c2c1 [Example 66, N-(2-aminophenyl)-4-((6-methoxy-3-methyl-1H-indazol-1-yl)methyl)benzamide]
38 | ≤ 50 nM | COc1ccc2c(C)n(Cc3ccc(C(=O)Nc4ccccc4N)cc3)nc2c1 [Example 67, N-(2-aminophenyl)-4-((6-methoxy-3-methyl-2H-indazol-2-yl)methyl)benzamide]
39 | ≤ 50 nM | Cc1nn(Cc2ccc(C(=O)Nc3ccccc3N)cc2)c2cc(O)ccc12 [Example 74, N-(2-aminophenyl)-4-((6-hydroxy-3-methyl-1H-indazol-1-yl)methyl)benzamide]
40 | ≤ 50 nM | COc1ccc2c(cnn2Cc2ccc(C(=O)Nc3ccccc3N)cc2)c1 [Example 78, N-(2-aminophenyl)-4-((5-methoxy-1H-indazol-1-yl)methyl)benzamide]
41 | ≤ 50 nM | COc1ccc2nn(Cc3ccc(C(=O)Nc4ccccc4N)cc3)cc2c1 [Example 79, N-(2-aminophenyl)-4-((5-methoxy-2H-indazol-2-yl)methyl)benzamide]
42 | ≤ 50 nM | COc1cccc2nn(Cc3ccc(C(=O)Nc4ccccc4N)cc3)cc12 [Example 83, N-(2-aminophenyl)-4-((4-methoxy-2H-indazol-2-yl)methyl)benzamide]
43 | ≤ 50 nM | COc1cccc2c1cnn2Cc1ccc(C(=O)Nc2ccccc2N)cc1 [Example 85, N-(2-aminophenyl)-4-((4-methoxy-1H-indazol-1-yl)methyl)benzamide]
44 | ≤ 50 nM | CC(=O)Nc1ccc2c(C)n(Cc3ccc(C(=O)Nc4ccccc4N)cc3)nc2c1 [Example 86, 4-((6-acetamido-3-methyl-2H-indazol-2-yl)methyl)-N-(2-aminophenyl)benzamide]
45 | ≤ 50 nM | CC(=O)Nc1ccc2cnn(Cc3ccc(C(=O)Nc4ccccc4N)cc3)c2c1 [Example 89, 4-((6-acetamido-1H-indazol-1-yl)methyl)-N-(2-aminophenyl)benzamide]
46 | ≤ 50 nM | CC(=O)Nc1ccc2cn(Cc3ccc(C(=O)Nc4ccccc4N)cc3)nc2c1 [Example 90, 4-((6-acetamido-2H-indazol-2-yl)methyl)-N-(2-aminophenyl)benzamide]
